One experiment addresses T1, calf skin collagen (Bos taurus, UniProt P02453+P02465).
T1 construct: from tissue; host or cells: calf skin
The experiment is described as follows: Anti-AGE activity on calf skin collagen in solution in the presence of ribose (pentosidine-type AGE fluorescence). Type of experiment: biochemical. The following applies: for IC50: read-out: Anti-AGE activity measured on collagen (IC50 in mg/mL) (converted). The method, then: Calf skin collagen (0.1 mg/mL) and ribose (0.5 M) are incubated in phosphate buffer 50 mM pH 7.4 at 37° C. in a 96-well Greiner bio-one plate with a black bottom (100 μL). The same experiment is performed in the presence of an AGE formation inhibitor, such as aminoguanidine (1 mg/mL, DMSO 10%). The following control solutions are also prepared: collagen (0.1 mg/mL) with or without an AGE formation inhibitor (1 mg/mL, DMSO 10%) is incubated in phosphate buffer 50 mM pH 7.4 at 37° C.

A further experiment deals with albumin (Bos taurus, UniProt P02769). As to the kind of experiment: Anti-AGE activity measured on albumin (pentosidine-type AGEs formed). Type of experiment: biochemical. The conditions noted are these: quantity of pentosidine-type AGEs formed.
The nature of experiment [1]: DPPH antioxidant potential. The conditions noted are these: for DPPH (μmol TE/g): TE: Trolox Equivalent. In general terms: The DPPH test is a chemical assay of radical scavenging.
A short description of experiment [2]: ORAC antioxidant potential. The following applies: for ORAC (μmol TE/g): TE: Trolox Equivalent.
Where [3] appears, read: ribose, quantity of pentosidine-type AGEs formed, NA: Inactive.

T1 sequence (P02453 162-1217 limits assumed): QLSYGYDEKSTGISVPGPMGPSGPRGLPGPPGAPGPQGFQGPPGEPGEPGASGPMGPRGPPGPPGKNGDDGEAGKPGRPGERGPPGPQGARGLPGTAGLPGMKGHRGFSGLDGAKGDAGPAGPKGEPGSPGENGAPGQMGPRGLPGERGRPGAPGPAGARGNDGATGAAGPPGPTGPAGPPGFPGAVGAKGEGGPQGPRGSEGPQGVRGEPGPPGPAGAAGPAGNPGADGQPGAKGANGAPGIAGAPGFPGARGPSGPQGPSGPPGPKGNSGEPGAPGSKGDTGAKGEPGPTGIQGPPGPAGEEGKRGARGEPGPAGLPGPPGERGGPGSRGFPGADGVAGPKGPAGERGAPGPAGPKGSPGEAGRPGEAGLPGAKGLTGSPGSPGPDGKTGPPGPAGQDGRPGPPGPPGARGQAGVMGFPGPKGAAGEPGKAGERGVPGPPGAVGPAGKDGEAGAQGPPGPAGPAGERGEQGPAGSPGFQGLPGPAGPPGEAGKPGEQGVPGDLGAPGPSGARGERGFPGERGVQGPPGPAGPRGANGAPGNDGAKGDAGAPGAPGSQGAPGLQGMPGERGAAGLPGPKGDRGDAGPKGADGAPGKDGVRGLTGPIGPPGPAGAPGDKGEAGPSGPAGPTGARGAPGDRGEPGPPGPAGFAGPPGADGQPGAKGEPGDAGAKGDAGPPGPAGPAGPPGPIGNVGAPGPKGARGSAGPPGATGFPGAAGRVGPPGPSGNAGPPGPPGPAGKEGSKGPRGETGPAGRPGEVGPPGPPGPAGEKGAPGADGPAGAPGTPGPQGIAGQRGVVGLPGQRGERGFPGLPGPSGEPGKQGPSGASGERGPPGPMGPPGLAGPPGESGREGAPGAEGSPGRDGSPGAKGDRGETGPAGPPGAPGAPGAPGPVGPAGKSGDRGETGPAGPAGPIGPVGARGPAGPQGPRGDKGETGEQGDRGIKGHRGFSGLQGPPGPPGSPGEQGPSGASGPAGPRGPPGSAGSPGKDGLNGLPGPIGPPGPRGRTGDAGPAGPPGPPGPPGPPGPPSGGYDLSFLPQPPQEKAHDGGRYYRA
T1 sequence (P02465 80-1117 limits assumed): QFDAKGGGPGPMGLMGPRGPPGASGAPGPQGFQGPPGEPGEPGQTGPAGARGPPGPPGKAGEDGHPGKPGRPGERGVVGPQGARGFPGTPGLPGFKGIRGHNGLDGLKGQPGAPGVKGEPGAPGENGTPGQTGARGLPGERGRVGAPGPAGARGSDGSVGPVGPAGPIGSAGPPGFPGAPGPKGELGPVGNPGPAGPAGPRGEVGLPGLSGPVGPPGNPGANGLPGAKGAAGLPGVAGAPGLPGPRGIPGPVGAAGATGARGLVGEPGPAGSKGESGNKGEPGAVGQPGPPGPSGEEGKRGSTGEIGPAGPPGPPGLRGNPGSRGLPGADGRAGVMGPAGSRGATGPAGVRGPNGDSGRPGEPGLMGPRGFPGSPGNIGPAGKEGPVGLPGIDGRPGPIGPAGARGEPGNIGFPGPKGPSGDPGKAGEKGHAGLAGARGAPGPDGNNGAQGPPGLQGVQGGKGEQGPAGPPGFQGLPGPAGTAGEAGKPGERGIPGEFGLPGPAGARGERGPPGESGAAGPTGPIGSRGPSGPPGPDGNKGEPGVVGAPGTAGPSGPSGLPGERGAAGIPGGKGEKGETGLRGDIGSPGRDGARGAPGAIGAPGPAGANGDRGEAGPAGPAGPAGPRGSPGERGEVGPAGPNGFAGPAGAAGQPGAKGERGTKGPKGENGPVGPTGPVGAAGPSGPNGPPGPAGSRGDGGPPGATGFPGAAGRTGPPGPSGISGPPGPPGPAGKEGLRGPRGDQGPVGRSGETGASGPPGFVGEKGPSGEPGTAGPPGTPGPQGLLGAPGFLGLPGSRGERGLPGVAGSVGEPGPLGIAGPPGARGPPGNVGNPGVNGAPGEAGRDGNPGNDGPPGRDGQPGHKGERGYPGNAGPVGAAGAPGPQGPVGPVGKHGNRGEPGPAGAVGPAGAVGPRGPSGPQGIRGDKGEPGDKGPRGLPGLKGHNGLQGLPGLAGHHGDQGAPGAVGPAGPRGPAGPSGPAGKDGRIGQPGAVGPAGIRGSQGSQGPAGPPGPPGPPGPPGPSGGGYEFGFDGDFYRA
albumin, sequence (P02769 25-607): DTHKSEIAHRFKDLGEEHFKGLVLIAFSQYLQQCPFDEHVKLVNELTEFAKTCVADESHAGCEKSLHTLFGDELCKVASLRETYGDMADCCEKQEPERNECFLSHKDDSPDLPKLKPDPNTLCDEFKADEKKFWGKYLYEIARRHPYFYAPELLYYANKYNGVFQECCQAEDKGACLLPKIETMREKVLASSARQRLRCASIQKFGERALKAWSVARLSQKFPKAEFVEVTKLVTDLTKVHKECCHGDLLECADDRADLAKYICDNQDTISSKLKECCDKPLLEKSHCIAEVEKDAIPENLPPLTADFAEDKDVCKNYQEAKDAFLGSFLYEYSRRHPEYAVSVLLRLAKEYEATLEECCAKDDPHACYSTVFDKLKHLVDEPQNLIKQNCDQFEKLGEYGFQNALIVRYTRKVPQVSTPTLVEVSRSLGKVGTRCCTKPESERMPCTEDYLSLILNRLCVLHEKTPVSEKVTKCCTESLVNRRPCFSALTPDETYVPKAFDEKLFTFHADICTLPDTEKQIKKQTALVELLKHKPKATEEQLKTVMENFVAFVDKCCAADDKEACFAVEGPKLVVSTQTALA

`N=C(N)NN` [Aminoguanidine]: the IC50 at calf skin collagen (setting [3]) was 13500 µM. Also, at albumin (read-out: Anti-AGE activity measured on albumin (IC50 in mg/mL) (converted)), the IC50 is 2020 µM. Besides, in experiment [1], the “antioxidant activity, DPPH test (in words)” value is given as “does not have an antioxidant activity” and the “DPPH (μmol TE/g)” value is reported as 0 μmol TE/g. In addition, in experiment [2], the “antioxidant activity, ORAC test (in words)” value is on record as “does not have an antioxidant activity” and the “ORAC (μmol TE/g)” value is 0 μmol TE/g.

Take `Oc1cc(O)c2c(c1)O[C@H](c1ccc(O)c(O)c1)[C@H](O)[C@H]2c1c(O)cc(O)c2c1O[C@H](c1ccc(O)c(O)c1)[C@H](O)C2` [Procyanidin B2]: the “Anti-AGE activity measured on albumin (IC50 in mg/mL)” value on albumin came to 0.1 mg/mL. For the same compound, the “DPPH (μmol TE/g)” value in experiment [1] was found to be 3945 μmol TE/g. The “ORAC (μmol TE/g)” value in experiment [2] is given as 23720 μmol TE/g.

On to `O=c1c(O)c(-c2ccc(O)c(O)c2)oc2cc(O)cc(O)c12` [Quercetin], for which the IC50 on calf skin collagen (setting [3]) was 1160 µM. Moreover, in experiment [1], the “DPPH (μmol TE/g)” value is 6722 μmol TE/g.

In the case of `C/C(=C\CC/C(C)=C/CC[C@]1(C)CCc2cc(O)cc(C)c2O1)CC/C=C(\C)C(=O)O` [garcinoic acid], at calf skin collagen, the “anti-glycation activity on calf skin collagen (in words)” value was “has a real anti-glycation activity, but nevertheless inferior to that of kolaviron”.

Take GB2: the “Anti-AGE activity measured on collagen (IC50 in mg/mL)” value at calf skin collagen (setting [3]) worked out at 0.03 mg/mL.
